The results in this text go back to US20250352500A1, “USE OF PHENOLIC ACIDS DERIVATIVES IN TREATING ISCHEMIC STROKE” (LANZHOU UNIVERSITY, priority 2022, published 2025).

Holding throughout (type): in vivo, male C57/BL mice
The test system of assay [1] is GFAP. The experiment in a line: GFAP immunofluorescence in brain tissue (astrocytes). Conditions: 72 h ischemia-reperfusion, three days of administration; compound 2 100 mg/kg, compound 1 50 mg/kg; MCAO group 481±67; mean±SEM, n=3. On the procedure: (§1) Grouping and administration method: Male C57/BL mice weighing 23±1 g were randomly divided into sham operation group (SHAM), model group (MCAO), compound 2 group (100 mg/kg), and compound 1 group (50 mg/kg), with 10 mice in each group. Mice in the SHAM group underwent vascular isolation, but no […] was administered, and no treatment was given before or after surgery. The model group mice were constructed with MCAO models and were not treated before and after surgery. The treatment group was treated with compound 2 or compound 1 on the basis of the model group. Mice with a neurological score of 0 after reperfusion and those that died before 72 hours post-surgery were excluded. […]
To investigate whether compound 2 has an effect on the activation and proliferation of astrocytes during ischemia-reperfusion, this study used immunofluorescence experiments to observe and detect the fluorescence expression of GFAP in brain tissues from the sham operation group, model group, compound 2 group, and compound 1 group. […] After 72 hours of ischemia-reperfusion, the activation and proliferation of GFAP protein in astrocytes in the brain region were analyzed by immunofluorescence staining. […]

Assay [2] concerns GFAP. Put plainly: GFAP protein Western blot in brain tissue. Conditions: for GFAP protein expression reduced compared with MCAO group: 72 h ischemia-reperfusion, three days of administration, compound 2 100 mg/kg, compound 1 50 mg/kg. On the procedure:
(§2) Grouping and administration method: Male C57/BL mice weighing 23±1 g were randomly divided into sham operation group (SHAM), model group (MCAO), compound 2 group (100 mg/kg), and compound 1 group (50 mg/kg), with 10 mice in each group. Mice in the SHAM group underwent vascular isolation, but no […] was administered, and no treatment was given before or after surgery. The model group mice were constructed with MCAO models and were not treated before and after surgery. The treatment group was treated with compound 2 or compound 1 on the basis of the model group. Mice with a neurological score of 0 after reperfusion and those that died before 72 hours post-surgery were excluded. The administration time for animal behavior tests was seven times at 0 h, 1 day, 2 days, 3 days, 4 days, 5 days, and 6 days after reperfusion, while the administration time for other experiments was three times at 0 h, 1 day, and 2 days after reperfusion. The drug was administered through the tail vein, and the sham operation group and model group were given equal amounts of saline.
After 72 hours of ischemia-reperfusion, the protein expression level of GFAP, a marker of astrocytes in brain tissue, was detected with Western blot. The representative Western blot (WB) images of GFAP protein expression in the brain tissues of the sham operation group (SHAM), model group (MCAO), compound 2 group, and compound 1 group are shown in FIG. 6A, and the quantitative statistical results are shown in FIG. 6B. […] In this experiment, β-actin was used as an internal reference protein. n=3, data are mean±SEM, analyzed using one-way ANOVA and Tukey's HSD test. *P<0.05, **P<0.01, ***P<0.001. ^#P<0.05, ^##P<0.01, ^###P<0.001. * indicates comparison with the SHAM group, # indicates comparison with the compound 2 group.

The next assay has as its system iba1. The experiment in a line: iba1 protein Western blot in brain tissue. Conditions: for iba1 protein expression reduced compared with MCAO group: three days of administration, compound 2 100 mg/kg, compound 1 50 mg/kg. On the procedure: as §2
The expression level of the specific protein iba1 in microglia in brain tissues was detected by Western blot. (A) The representative WB images of iba1 protein expression in brain tissues of the sham operation group (SHAM), model group (MCAO), compound 2 group, and compound 1 group are shown in FIG. 8A, and the quantitative statistical results are shown in FIG. 8B. […] Compared with the MCAO group, the expression of iba1 protein decreased three days after administration of compound 1. Compared with the compound 1 group, the expression level of iba1 protein in the compound 2 group decreased. In this experiment, β-actin was used as the internal reference protein. n=3, data are presented as mean±SEM, analyzed with one-way ANOVA, and subjected to Tukey's HSD test. *P<0.05, **P<0.01, ***P<0.001. ^#P<0.05, ^##P<0.01, ^###P<0.001. * indicates comparison with the SHAM group, ^# indicates a comparison with the Compound 2 group.
For orientation: A western blot detects proteins with antibodies after separation by electrophoresis.

For a further assay, the system named is iNOS. The experiment in a line: RT-qPCR of iNOS mRNA in brain tissue. Conditions: 72 h, three days of administration, compound 2 100 mg/kg, compound 1 50 mg/kg, P<0.05. On the procedure:
as §1
(§3) To investigate the effect of compounds on the expression of inflammatory factors after ischemia-reperfusion, this study used immunofluorescence experiments to observe the expression of TNF-α, IL-1β, IL-6, iNOS, and COX2 proteins in brain tissue. […] The concentrations of TNF-α, IL-1β, and IL-6 in brain homogenate were detected by enzyme-linked immunosorbent assay (ELISA), and the expression level of TNF-α protein in brain tissue was detected by Western blot.
After 72 hours of ischemia-reperfusion, the mRNA expression levels of TNF-α, IL-1β, IL-6, iNOS, and COX2 in brain tissue were detected and analyzed by RT-qPCR. […]
Background: Real-time PCR tracks product formation cycle by cycle.

The next assay deals with IL-1β. Put plainly: ELISA of IL-1β in brain homogenate. Conditions: 72 h, three days of administration, compound 2 100 mg/kg, compound 1 50 mg/kg. On the procedure:
as §1, §3
After 72 hours of ischemia-reperfusion, the expression levels of inflammatory factors TNF-α, IL-1β, and IL-6 in the mouse brain homogenate were detected.
Background: ELISA stands for enzyme-linked immunosorbent assay.

In another assay the test system is HIF-1α. Put plainly: HIF-1α protein Western blot in brain tissue. Conditions: 72 h; for HIF-1α protein expression reduced compared with MCAO model group: three days of administration, compound 2 100 mg/kg, compound 1 50 mg/kg. On the procedure: as §2
HIF-1α is a sensitive regulator of oxygen homeostasis, rapidly inducing its expression after hypoxia-ischemia. It plays a wide range of roles in the pathophysiology of stroke, including neuronal survival, neuroinflammation, angiogenesis, glucose metabolism, and blood-brain barrier regulation. It can not only produce specific sensations in the case of hypoxia, but also facilitate the maintenance of oxygen homeostasis in the body. […]
After 72 hours of ischemia-reperfusion, the expression level of HIF-1α protein in brain tissue was detected by Western blot. […] In this experiment, β-actin was used as the internal reference protein. n=3, data are mean±SEM, analyzed using one-way ANOVA and Tukey's HSD test. *P<0.05, **P<0.01, ***P<0.001. ^#P<0.05, ^##P<0.01, ^###P<0.001. * indicates a comparison with the SHAM group, ^# indicates a comparison with the compound 2 group.

The mark [3] stands for this setting: compound 2 100 mg/kg vs compound 1 50 mg/kg.

Each structure is given as a SMILES string.

Turning to `O=C(O)c1cc(OP(=O)(O)O)ccc1OP(=O)(O)O` [compound 2], the “Number of GFAP-positive cells” value in the assay with GFAP [1] is given as 195±45 /mm^2. Besides, the “GFAP protein expression reduced compared with the compound 1 group” value with GFAP [2] (72 h, compound 2 100 mg/kg vs compound 1 50 mg/kg, P<0.05) is on record as 45±10%. In addition, the “GFAP protein expression reduced compared with MCAO group” value in the assay with GFAP [2] stood at 43±12%. In addition, in the assay with iba1 (setting [3]), the “iba1 protein expression level compared with the compound 1 group” value is reported as “decreased”. Also, in the assay with iba1, the “iba1 protein expression reduced compared with MCAO group” value stood at 50±12%. Besides, the “iNOS mRNA expression compared with MCAO group” value in the assay with iNOS is given as “significantly reduced”. Moreover, the “Decrease in IL-1β expression compared with MCAO group” value with IL-1β worked out at 32±9%. The “HIF-1α protein expression level compared with the compound 1 group” value in the assay with HIF-1α (setting [3]) is recorded as “significantly reduced”. The “HIF-1α protein expression reduced compared with MCAO model group” value in the assay on HIF-1α stood at 53±10%.
In the case of `O=C(O)c1cc(O)ccc1O` [compound 1], the “Number of GFAP-positive cells” value in the assay with GFAP [1] is given as 327±50 /mm^2. In the assay with GFAP [2], the “GFAP protein expression reduced compared with MCAO group” value was found to be 25±10%. The “iba1 protein expression reduced compared with MCAO group” value in the assay on iba1 is reported as “decreased”. Besides, the “iNOS mRNA expression compared with MCAO group” value with iNOS was “significantly reduced”. The “Decrease in IL-1β expression compared with MCAO group” value with IL-1β is “reduced to varying degrees”. Besides, in the assay with HIF-1α, the “HIF-1α protein expression reduced compared with MCAO model group” value is 46±10%.
